Three compounds from US8906826B2, “Herbicidal compositions comprising 4-amino-3-chloro-5-fluoro-6-(4-chloro-2-fluoro-3-methoxyphenyl) pyridine-2-carboxylic acid or a derivative thereof and imidazolinones” (Dow AgroSciences, LLC, priority 2012, dated 2014) can be followed below.

One assay has as its system IPOHE. The assay is described as follows: Postemergence foliar-applied, direct seeded rice weeds (Example I). The assay is classed as in vivo, Ipomoea hederacea Jacq. From the text: (§1) Seeds or nutlets of the desired test plant species were planted in a soil matrix prepared by mixing a loam or sandy loam soil (e.g., 28.6 percent silt, 18.8 percent clay, and 52.6 percent sand, with a pH of about 5.8 and an organic matter content of about 1.8 percent) and calcareous grit in an 80 to 20 ratio. The soil matrix was contained in plastic pots with a volume of 1 quart and a surface area of 83.6 cm^2. When required to ensure good germination and healthy plants, a fungicide treatment and/or other chemical or physical treatment was applied. The plants were grown for 8-22 days in a greenhouse with an approximate 14 h photoperiod which was maintained at about 29° C. during the day and 26° C. during the night. Nutrients (Peters Excel® 15-5-15 5-Ca 2-Mg and iron chelate) were applied in the irrigation solution as needed and water was added on a regular basis. Supplemental lighting was provided with overhead metal halide 1000-Watt lamps as necessary. The plants were employed for testing when they reached the first through fourth true leaf stage.
(§2) Treatments consisted of the acid or esters of 4-amino-3-chloro-5-fluoro-6-(4-chloro-2-fluoro-3-methoxy-phenyl)pyridine-2-carboxylic acid (Compound A), each formulated as an SC (suspension concentrate), and various herbicidal components alone and in combination. Forms of compound A were applied on an acid equivalent basis.
(§3) Other herbicidal components were applied on an acid equivalent basis and include acetolactate synthase (ALS)-inhibiting herbicides (imidazolinone chemical class) imazethapyr ammonium salt formulated as Newpath®, imazamox ammonium salt formulated as Beyond®, imazapic ammonium salt formulated as Plateau®, imazapyr isopropylamine salt formulated as Arsenal®, imazamethabenz-methyl (technical material) and imazaquin isopropylamine salt formulated as Scepter®/Imagine®.
(§4) Treatment requirements were calculated based upon the rates being tested, the concentration of active ingredient or acid equivalent in the formulation, and a 12 mL application volume at a rate of 187 L/ha.
For treatments comprised of formulated compounds, measured amounts of compounds were placed individually in 25 mL glass vials and diluted in a volume of 1.25% (v/v) Agri-Dex® crop oil concentrated to obtain 12× stock solutions. […] Application solutions were prepared by adding an appropriate amount of each stock solution (e.g., 1 mL) and diluted to the appropriate final concentrations with the addition of 10 mL of an aqueous mixture of 1.25% (v/v) crop oil concentrate so that the final spray solutions contained 1.25+/−0.05% (v/v) crop oil concentrate.
For treatments comprised of technical compounds, weighed amounts can be placed individually in 25 mL glass vials and dissolved in a volume of 97:3 v/v acetone/DMSO to obtain 12× stock solutions. […] Application solutions can be prepared by adding an appropriate amount of each stock solution (e.g., 1 mL) and diluted to the appropriate final concentrations with the addition of 10 mL of an aqueous mixture of 1.5% (v/v) crop oil concentrate so that the final spray solutions contain 1.25% (v/v) crop oil concentrate. When technical materials are used, the concentrated stock solutions can be added to the spray solutions so that the final acetone and DMSO concentrations of the application solutions are 16.2% and 0.5%, respectively.
(§5) For treatments comprised of formulated and technical compounds, weighed amounts of the technical materials were placed individually in 25 mL glass vials and dissolved in a volume of 97:3 v/v acetone/DMSO to obtain 12× stock solutions, and measured amounts of the formulated compounds were placed individually in 25 mL glass vials and diluted in a volume of 1.5% (v/v) crop oil concentrate or water to obtain 12× stock solutions. […]

Another assay concerns CIRAR. The experiment in a line: Postemergence herbicidal activity in cereal crops, greenhouse (Example V). The assay is classed as in vivo, Cirsium arvense (L.) Scop. The method, then:
(§6) Seeds of the desired test plant species were planted in Sun Gro MetroMix® 306 planting mixture, which typically has a pH of 6.0 to 6.8 and an organic matter content of about 30 percent, in plastic pots with a surface area of 103.2 square centimeters (cm^2). When required to ensure good germination and healthy plants, a fungicide treatment and/or other chemical or physical treatment was applied. The plants were grown for 7-36 days in a greenhouse with an approximate 14 hour photoperiod which was maintained at about 18° C. during the day and about 17° C. during the night. Nutrients and water were added on a regular basis and supplemental lighting was provided with overhead metal halide 1000-Watt lamps as necessary. The plants were employed for testing when they reached the second or third true leaf stage.
(§7) Treatments consisted of the benzyl ester of 4-amino-3-chloro-5-fluoro-6-(4-chloro-2-fluoro-3-methoxy-phenyl)pyridine-2-carboxylic acid (Compound A), formulated as an SC, a second cereal herbicide alone and then both in combination.
(§8) Other herbicidal components were applied on an acid equivalent basis and include acetolactate synthase (ALS)-inhibiting herbicides (imidazolinone chemical class) imazamethabenz-methyl formulated as Assert®. Spray solutions of the second cereal herbicide and experimental compound mixtures were prepared by adding the stock solutions to the appropriate amount of dilution solution to form 12 mL spray solution with active ingredients in two- and three-way combinations. […]
(§9) The treated plants and control plants were placed in a greenhouse as described above and watered by sub-irrigation to prevent wash-off of the test compounds. After 20-22 days, the condition of the test plants as compared with that of the control plants was determined visually and scored on a scale of 0 to 100 percent where 0 corresponds to no injury and 100 corresponds to complete kill. […]

The subject of a further assay is SINAR. The description is as above. The assay is classed as in vivo, Sinapis arvensis L. The method, then: as §6, §7, §8, §9
A further assay deals with ECHCO. The experiment in a line: Postemergence foliar-applied, direct seeded rice weeds (Example I). Format: in vivo, Echinochloa colona (L.) Link.
From the text: as §1, §2, §3, §4
For treatments comprised of formulated compounds, measured amounts of compounds were placed individually in 25 mL glass vials and diluted in a volume of 1.25% (v/v) Agri-Dex® crop oil concentrated to obtain 12× stock solutions. […]
as §5

[1] abbreviates: Compound A Benzyl Ester 2 gae/ha.
Setting [2] is: Compound A Benzyl Ester 4 gae/ha.

Consider `COc1c(Cl)ccc(-c2nc(C(=O)OCc3ccccc3)c(Cl)c(N)c2F)c1F` [Compound A Benzyl Ester, benzyl ester of 4-amino-3-chloro-5-fluoro-6-(4-chloro-2-fluoro-3-methoxy-phenyl)pyridine-2-carboxylic acid], for which the “Visual Weed Control (%) - 21 DAA IPOHE Obs” value in the assay on IPOHE (Compound A Benzyl Ester 4.38 gae/ha) amounted to 0%; with IPOHE (Compound A Benzyl Ester 8.75 gae/ha) it was 10%; in the assay with IPOHE (Compound A Benzyl Ester 17.5 gae/ha), 25%. The “Visual Weed Control (%) - 21 DAA CIRAR Obs” value was found to be 10% with CIRAR (setting [1]) and 20% in the assay on CIRAR (setting [2]). Further, the “Visual Weed Control (%) - 21 DAA SINAR Obs” value with SINAR (setting [1]) was found to be 60%; with SINAR (setting [2]), 70%.
Turning to `COc1c(Cl)ccc(-c2nc(C(=O)O)c(Cl)c(N)c2F)c1F` [Compound A Acid, 4-amino-3-chloro-6-(4-chloro-2-fluoro-3-methoxyphenyl)-5-fluoropyridine-2-carboxylic acid], the “Visual Weed Control (%) - 25 DAA ECHCO Obs” value is given as 60% in the assay on ECHCO (Compound A Acid 4.38 gae/ha), 65% with ECHCO (Compound A Acid 8.75 gae/ha) and 90% in the assay with ECHCO (Compound A Acid 17.5 gae/ha). Further, the “Visual Weed Control (%) - 21 DAA IPOHE Obs” value in the assay on IPOHE (Compound A Acid 4.38 gae/ha) worked out at 0%; with IPOHE (Compound A Acid 8.75 gae/ha) it was 10%; with IPOHE (Compound A Acid 17.5 gae/ha), 30%.
Regarding `Cc1cnc(C2=NC(C)(C(C)C)C(=O)N2)c(C(=O)O)c1.N` (racemic) [Imazapic ammonium, ammonium (±)-2-[4,5-dihydro-4-methyl-4-(1-methylethyl)-5-oxo-1H-imidazol-2-yl]-5-methyl-3-pyridinecarboxylic acid], in the assay with ECHCO (Imazapic ammonium 17.5 gae/ha), the “Visual Weed Control (%) - 25 DAA ECHCO Obs” value amounted to 70%.
